Measurements: publication PMC10449848, “Structural basis of lipid-droplet localization of 17-beta-hydroxysteroid dehydrogenase 13” (Nature Communications, 2023)
Where “and” joins values, the source holds several entries; their conditions need not be identical. Identical values can stand only once.

Molecular target: T1, human HSD17B13 (Homo sapiens, UniProt Q7Z5P4)
T1 construct: human HSD17B13 (residues 2-300, NP_835236.2); 10x His (N); TEV protease site (N); made in house; host or cells: Sf9 (baculovirus)
T1 sequence (Q7Z5P4 2-300): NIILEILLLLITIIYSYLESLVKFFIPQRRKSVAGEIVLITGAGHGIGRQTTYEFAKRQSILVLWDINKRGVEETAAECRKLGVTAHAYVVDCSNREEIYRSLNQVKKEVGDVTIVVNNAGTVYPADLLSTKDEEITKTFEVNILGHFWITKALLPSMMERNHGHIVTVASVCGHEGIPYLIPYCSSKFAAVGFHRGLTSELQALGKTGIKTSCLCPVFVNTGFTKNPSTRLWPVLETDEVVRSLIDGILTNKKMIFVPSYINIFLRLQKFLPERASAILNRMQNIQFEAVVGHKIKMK
Assay: Co-factor (NAD+ / NADP) dependency biochemical assay, NAD(P)H-Glo readout, uninhibited vs inhibited reactions
Settings: 30 μM 1, 20 nM protein
Procedure: Dependency of co-factor (NAD^+ and NADP^+) was determined using a purified protein HSD17B13 biochemical enzyme activity assay, using NAD(P)H-Glo luciferase readout (Promega). Substrates β-estradiol (Sigma, E8875) and Leukotriene B4 (LTB4, Cayman), 15 μM FAC in assay buffer (25 mM Tris-HCl (Sigma T2444) and 0.02% Triton X-100, pH 7.6), and 500 µM FAC co-factor (NAD^+ or NADP, Sigma, N8285) in assay buffer were added (2.5 µL/well each) to 384-well assay plates (Corning 3824) containing 2.5 μL of either 30 μM FAC inhibitor in 1% DMSO/assay buffer or vehicle (1% DMSO/assay buffer), in triplicate. The reaction was initiated by the addition of 2.5 µL/well-purified HSD17B13 protein (20 nM FAC in assay buffer). Compound, substrate, co-factor, and HSD17B13 protein were incubated in the dark at room temperature for 2 hours before the addition of 10 µL/well NAD(P)H-Glo detection reagent, prepared from luciferase detection reagent and reductase/reductase substrate, as per manufacturer’s instructions (Promega, G9061). Detection reagent was incubated in the dark for 1 hour at room temperature before plates were read on the Envision plate reader (Perkin Elmer) using a luminescent protocol. Data expressed as relative luminescent units (RLUs) were exported from the plate reader and plotted in GraphPad Prism.

O=C(NC[C@]1(O)CC[C@H](COc2ccccc2F)CC1)c1ccc(O)c(F)c1 [Compound 1]
signal of inhibited reaction (LTB4 + NAD): 49880 RLU and 52640 RLU
signal of inhibited reaction (LTB4 + NADP): 49240 RLU and 47920 RLU
signal of inhibited reaction (β-estradiol + NAD): 48200 RLU and 48320 RLU
signal of inhibited reaction (β-estradiol + NADP): 47760 RLU and 49720 RLU
